# How the values were obtained:
# [1] = biological target: human adenosine A2a receptor (Homo sapiens (Human), UniProt P29274); test: Adenosine receptor radioligand binding assay, A2a ([3H]-CGS 21680, HEK293 membranes); details: radioligand [3H]-CGS 21680, HEK293 membrane preparation; Cheng-Prusoff
# Protocol: (§1) B-2. Adenosine Receptor Binding Assays
# (§2) The binding properties of the test compounds on adenosine receptors were determined in binding studies with radioligands. For this purpose, membrane preparations of the human adenosine receptor subtypes were produced from cell lines having recombinant receptor expression (CHO cells for the A1 receptor, HEK293 cells for the A2a, A2b and A3 receptors). The following radioligands were used in the experiments: [^3H]-DPCPX for the A1 receptor, [^3H]-CGS 21680 for the A2a receptor, [^3H]-CPX for the A2b receptor and [^125I]-AB-MECA for the A3 receptor. The test substances were each tested in 8 different concentrations and 2 repeat tests per concentration. The displacement of the particular radioligand by the test compound was expressed as percentage inhibition of the specific binding of the controls. The IC50 values (concentration which brings about half-maximum inhibition of the specific binding of the controls) and the Hill coefficients (nH) were determined by a non-linear regression analysis, using the competition curves obtained from the mean values of the repeat tests and conducting a curve fit according to the Hill equation: Y=D+[A−D/1+(C/C50)^nH] (Y=specific binding; A=left-hand asymptote of the curve; D=right-hand asymptote of the curve; C=substance concentration; C50=IC50; nH=rise factor).
# (§3) The inhibition constant (Ki) was calculated by the Cheng-Prusoff equation: Ki=IC50/(1+L/KD) (L=concentration of the radioligand in the assay; KD=receptor affinity of the radioligand for the receptor, determined with a Scatchard plot). [Literature: A1 receptor: Townsend-Nicholson, A. and Schofield, P. R., J. Biol. Chem. 269: 2373-2376 (1994); A2a receptor: Luthin, D. R. et al., Mol. Pharmacol. 47: 307-313 (1995); A2b receptor: Stehle, J. H. et al., Mol. Endocrinol. 6: 384-393 (1992) and Linden et al., Mol. Pharmacol. 56: 705-713 (1999); A3 receptor: Salvatore, C. A. et al., Proc. Natl. Acad. Sci. U.S.A. 90: 10365-10369 (1993) and Jacobson, K. A. et al., Neuropharmacology 36: 1157-1165 (1997)].
# (§4) Table 2 below lists the Ki values thus determined from these binding assays for representative working examples: […]
# [2] = biological target: T1, human adenosine A2b receptor (Homo sapiens (Human), UniProt P29275); test: Adenosine receptor radioligand binding assay, A2b ([3H]-CPX, HEK293 membranes); details: radioligand [3H]-CPX, HEK293 membrane preparation; Cheng-Prusoff
# T1 sequence (P29275 whole entry): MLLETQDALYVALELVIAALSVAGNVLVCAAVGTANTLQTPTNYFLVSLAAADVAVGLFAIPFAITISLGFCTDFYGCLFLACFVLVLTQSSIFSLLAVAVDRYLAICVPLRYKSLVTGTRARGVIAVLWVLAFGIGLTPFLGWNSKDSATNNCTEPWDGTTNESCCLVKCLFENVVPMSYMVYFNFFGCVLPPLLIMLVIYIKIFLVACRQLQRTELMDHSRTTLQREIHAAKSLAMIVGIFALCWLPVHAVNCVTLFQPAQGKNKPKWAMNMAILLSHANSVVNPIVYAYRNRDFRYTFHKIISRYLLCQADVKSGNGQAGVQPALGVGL
# Protocol: as §1, §2, §3, §4
# [3] = biological target: human adenosine A3 receptor (Homo sapiens (Human), UniProt P0DMS8); test: Adenosine receptor radioligand binding assay, A3 ([125I]-AB-MECA, HEK293 membranes); details: radioligand [125I]-AB-MECA, HEK293 membrane preparation; Cheng-Prusoff
# Sequence of human adenosine A3 receptor (P0DMS8 whole entry): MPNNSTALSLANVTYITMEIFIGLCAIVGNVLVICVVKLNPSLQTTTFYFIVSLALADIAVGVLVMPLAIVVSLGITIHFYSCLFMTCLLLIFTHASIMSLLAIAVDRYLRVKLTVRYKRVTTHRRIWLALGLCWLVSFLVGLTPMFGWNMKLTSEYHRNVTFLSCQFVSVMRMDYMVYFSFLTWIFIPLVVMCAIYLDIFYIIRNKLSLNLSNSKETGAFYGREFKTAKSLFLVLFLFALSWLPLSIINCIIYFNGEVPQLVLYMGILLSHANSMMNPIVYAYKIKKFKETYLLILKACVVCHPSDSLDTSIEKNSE
# Protocol: as §1, §2, §3, §4
# [4] = biological target: T1, human adenosine A2b receptor; test: Cellular in vitro reporter gene test for A2b receptor activity (CHO-K1, CRE-luciferase, NECA stimulation); type: cell-based; details: recombinant CHO-K1 cell line, CRE-luciferase reporter, antagonism of EC50 concentration of NECA; in some cases means of several determinations, rounded to two significant figures; read-out: A2b receptor IC50
# In short: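 CHO-K1 cells with CRE-driven luciferase; antagonists co-incubated with NECA at its EC50, determined in a pre-experiment on each test day. Luciferase read by luminescence 3 h after NECA addition.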
# [5] = biological target: human adenosine A1 receptor (Homo sapiens (Human), UniProt P30542); test: Adenosine receptor radioligand binding assay, A1 ([3H]-DPCPX, CHO membranes); details: radioligand [3H]-DPCPX, CHO membrane preparation; Cheng-Prusoff
# Sequence of human adenosine A1 receptor (P30542 whole entry): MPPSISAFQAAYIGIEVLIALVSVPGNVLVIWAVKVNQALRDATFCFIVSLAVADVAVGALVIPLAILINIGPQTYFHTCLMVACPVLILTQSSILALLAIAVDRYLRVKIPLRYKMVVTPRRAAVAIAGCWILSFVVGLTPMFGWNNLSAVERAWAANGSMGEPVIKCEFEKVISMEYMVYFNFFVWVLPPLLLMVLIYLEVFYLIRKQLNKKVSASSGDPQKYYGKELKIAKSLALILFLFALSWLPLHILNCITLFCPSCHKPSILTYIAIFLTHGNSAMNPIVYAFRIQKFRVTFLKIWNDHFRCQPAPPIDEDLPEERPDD
# Protocol: as §1, §2, §3, §4
# [6] = tested on: bladder tumours and breast tumours; details: bladder and breast tumour animal models; cited from earlier work
# [7] = tested on: IL-6 release by human fibroblast cell line LL29; test: NECA-induced IL-6 release by LL29 fibroblasts (ELISA); type: cell-based; details: LL29 cells, NECA 10 μM, 24 hours incubation, IL-6 in supernatant by ELISA
# Protocol: B-3. Measurement of NECA-Induced IL-6 Release by LL29 Fibroblasts
# Stimulation of fibroblasts with adenosine or the adenosine analog 5′-N-ethylcarboxamidoadenosine (NECA) leads to release of the pro-inflammatory and pro-fibrotic cytokine IL-6 which can be prevented by inhibition of the A2b receptor.
# Accordingly, confluent cells of the human fibroblast cell line LL29 were treated with the test substances and stimulated with NECA (10 μM). After an incubation time of 24 hours, the cell supernatant is removed and human IL-6 in the cell supernatant is determined by ELISA (Quantikine® IL6 ELISA, R&D Systems, Minneapolis, USA).
# Table 3 below lists the IC50 values obtained in this way for inhibition of IL-6 release for some working examples: […]
# colon cancer cell lines = details: A2b receptor antagonist; cited from earlier work
# human fibroblasts = details: stimulation with adenosine analogue; increased by hypoxia; cited from earlier work
# [8] = tested on: human pulmonary arterial endothelial and smooth muscle cells; details: stimulation with adenosine analogue; cited from earlier work
# melanoma animal models = details: cited from earlier work
# [9] = tested on: prostate cancer cell lines; details: A2b receptor antagonist; cited from earlier work
# Sequence of human adenosine A2a receptor (P29274 whole entry): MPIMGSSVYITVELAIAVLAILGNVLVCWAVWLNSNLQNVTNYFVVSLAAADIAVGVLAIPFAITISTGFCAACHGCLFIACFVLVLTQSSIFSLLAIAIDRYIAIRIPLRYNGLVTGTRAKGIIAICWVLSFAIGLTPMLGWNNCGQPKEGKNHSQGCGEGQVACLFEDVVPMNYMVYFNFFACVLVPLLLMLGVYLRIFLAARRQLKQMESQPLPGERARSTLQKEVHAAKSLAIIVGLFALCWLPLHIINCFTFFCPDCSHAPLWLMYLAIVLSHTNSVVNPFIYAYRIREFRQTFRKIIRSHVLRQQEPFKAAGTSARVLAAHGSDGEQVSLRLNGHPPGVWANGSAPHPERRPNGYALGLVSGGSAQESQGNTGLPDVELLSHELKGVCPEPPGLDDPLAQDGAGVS
smiles,measurement,setting,value
"CCn1c(=O)c2c(C)c(CN3CCNC3=O)sc2n(CC2CCO2)c1=O (single isomer, unassigned; enantiomer 1) [Example 66, 3-Ethyl-5-methyl-1-(oxetan-2-ylmethyl)-6-[(2-oxoimidazolidin-1-yl)methyl]thieno[2,3-d]pyrimidine-2,4(1H,3H)-dione (Enantiomer 1)]",Ki,[1],280 nM
same,Ki,[2],5.2 nM
same,Ki,[3],6800 nM
same,IC50,[4],4.3 nM
same,Ki,[5],950 nM
CCCn1c(=O)n(C2CC2)c(=O)c2[nH]c(-c3ccc(N(CC)C(=O)c4cccnc4)nc3)nc21 [ATL801],metastasis,[6],distinct reduction in metastasis
same,tumour growth,[6],slowing of tumour growth
"COCCn1c(=O)n(CCc2ccccc2)c(=O)c2c(C)c(CN3CCCC3=O)sc21 [Example 3, 1-(2-Methoxyethyl)-5-methyl-6-[(2-oxopyrrolidin-1-yl)methyl]-3-(2-phenylethyl)thieno[2,3-d]pyrimidine-2,4(1H,3H)-dione]",IC50,[4],4.4 nM
same,IC50,[7],15 nM
"COCCn1c(=O)n(CCc2ccccc2)c(=O)c2c(C)c(CN3CCOC3=O)sc21 [Example 20, 1-(2-Methoxyethyl)-5-methyl-6-[(2-oxo-,3-oxazolidin-3-yl)methyl]-3-(2-phenylethyl)thieno[2,3-d]pyrimidine-2,4(1H,3H)-dione]",IC50,[4],3.6 nM
same,IC50,[7],5 nM
"CCn1c(=O)c2c(C)c(CN3CCNC3=O)sc2n(CCOC)c1=O [Example 59, 3-Ethyl-1-(2-methoxyethyl)-5-methyl-6-[(2-oxoimidazolidin-1-yl)methyl]thieno[2,3-d]pyrimidine-2,4(1H,3H)-dione]",Ki,[1],120 nM
same,Ki,[2],2.4 nM
same,Ki,[3],11000 nM
same,IC50,[4],5.1 nM
same,Ki,[5],330 nM
"COCCn1c(=O)n(C(C)C)c(=O)c2c(C)c(CN3CCNC3=O)sc21 [Example 86, 3-Isopropyl-1-(2-methoxyethyl)-5-methyl-6-[(2-oxoimidazolidin-1-yl)methyl]thieno[2,3-d]pyrimidine-2,4(1H,3H)-dione]",Ki,[1],270 nM
same,Ki,[2],2.7 nM
same,Ki,[3],160000 nM
same,IC50,[4],6.4 nM
same,Ki,[5],1100 nM
"COCCn1c(=O)n(CCc2ccccc2)c(=O)c2c(C)c(CN3CCN(C)C3=O)sc21 [Example 102, 1-(2-Methoxyethyl)-5-methyl-6-[(3-methyl-2-oxoimidazolidin-1-yl)methyl]-3-(2-phenylethyl)thieno[2,3-d]pyrimidine-2,4(1H,3H)-dione]",IC50,[4],4.5 nM
same,IC50,[7],5 nM
"CCn1c(=O)c2c(C)c(Cn3cc[nH]c3=O)sc2n(CCOC)c1=O [Example 109, 3-Ethyl-1-(2-methoxyethyl)-5-methyl-6-[(2-oxo-2,3-dihydro-1H-imidazol-1-yl)methyl]thieno[2,3-d]pyrimidine-2,4(1H,3H)-dione]",Ki,[1],100 nM
same,Ki,[2],2.8 nM
same,Ki,[3],14000 nM
same,IC50,[4],4.2 nM
same,Ki,[5],590 nM
"CCn1c(=O)c2c(C)c(Cn3nc[nH]c3=O)sc2n(CCC(F)(F)F)c1=O [Example 113, 3-Ethyl-5-methyl-6-[(5-oxo-4,5-dihydro-1H-1,2,4-triazol-1-yl)methyl]-1-(3,3,3-trifluoropropyl)thieno[2,3-d]pyrimidine-2,4(1H,3H)-dione]",Ki,[1],1700 nM
same,Ki,[2],6.4 nM
same,IC50,[4],8.1 nM
same,Ki,[5],1500 nM
"CCn1c(=O)c2c(C)c(Cn3cn[nH]c3=O)sc2n(CCC(F)(F)F)c1=O [Example 116, 3-Ethyl-5-methyl-6-[(5-oxo-1,5-dihydro-4H-1,2,4-triazol-4-yl)methyl]-1-(3,3,3-trifluoropropyl)thieno[2,3-d]pyrimidine-2,4(1H,3H)-dione]",Ki,[1],790 nM
same,Ki,[2],12 nM
same,Ki,[3],330 nM
same,IC50,[4],24 nM
same,Ki,[5],3300 nM
CCCn1c(=O)c2[nH]c(-c3ccc(OCC(=O)Nc4ccc(C#N)cc4)cc3)nc2n(CCC)c1=O [MRS1754],growth of colon cancer cell lines,colon cancer cell lines,reduced growth
"CCNC(=O)[C@H]1O[C@@H](n2cnc3c(N)ncnc32)[C@H](O)[C@@H]1O [NECA, 5′-(N-ethylcarboxamido)adenosine]",release of IL-6,human fibroblasts,release of IL-6
same,release of ET-1 and IL-6,[8],release of ET-1 and IL-6
CCCn1c(=O)[nH]c2nc(-c3ccc(S(=O)(=O)N4CCN(c5ccc(Cl)cc5)CC4)cc3)[nH]c2c1=O [PSB603],tumour growth and metastasis,melanoma animal models,reduction in tumour growth and metastasis
same,growth of several prostate cancer cell lines,[9],reduces the growth

# — patent US10428083B2, “Heterocyclylmethyl-thienouracile as antagonists of the adenosine-A2B-receptor” (BAYER PHARMA AKTIENGESELLSCHAFT, priority 2015, dated 2019)
